{"source": "patent US7235687B2", "about": "“Derivatives of 4,4′-dithiobis-(3-aminobutane-1-sulfphonates) and compositions containing same” (Institut National de la Sante et de la Recherche Medicale …, priority 2002, dated 2007)", "system": "Deoxycorticosterone acetate (DOCA)-salt hypertensive rats", "test": "Effect on blood pressure in DOCA-salt hypertensive rats", "type": "in vivo, rat", "conditions": "DOCA-salt hypertensive male Wistar Kyoto rats; oral gavage in water at 15 mg/kg; 4.5 hours after administration", "experimental": "Deoxycorticosterone acetate (DOCA)-salt hypertensive rats were obtained according to Pham, I. et al (1993) J. Pharmacol. Exp. Ther. 265, 1339–1347 with the following modifications: under pentobarbital anaesthesia, unilateral nephrectomy was performed in male Wistar Kyoto rats (300 g) and a pellet of 50 mg of DOCA was implanted s.c. After surgery, the rats were fed on standard rat chow and the drinking water was supplemented with 0.9% NaCl and 0.2% KCl. Hypertension developed 3 weeks after surgery.\nTo record arterial blood pressure, DOCA-salt rats were anaesthetized with pentobarbital sodium (50 mg/kg i.p., Sentravet laboratory, Plancoët, France), a femoral artery catheter (PE50) filled with heparinized saline (250 U/ml) was inserted, then brought under the skin and emerged at the nape of the neck. A flexible metal spring was attached to the skull and neck of the rat and connected to dual channel swivels mounted directly above the cage. This arrangement allowed the rat free movement inside the cage. […] Mean arterial BP was continuously recorded throughout each experiment using a COBE CDX III pressure transducer (Phymep, Paris, France) connected to the MacLab system (Phymep, Paris, France) composed of a MacLab technology unit and Chart software running on a Macintosh computer. […]", "data": [{"smiles": "Cl.Cl.NC(CCS(=O)(=O)[O-])CSSCC(N)CCS(=O)(=O)[O-].[Na+].[Na+]", "note": "(stereo not shown) [Example 1, 4,4′ dithiobis (sodium 3-aminobutane-1-sulfonate) bis chlorohydrate]", "values": [{"measurement": "decrease of mean arterial blood pressure", "value": 3680, "unit": "Pa"}]}]}
